# Reference: patent US20250387388A1, “COMPOUND AS TRK INHIBITOR AND/OR RET INHIBITOR AND USE THEREOF” (Medinno Pharmaceutical Technology (Zhuhai) Co., Ltd., priority 2022, published 2025)
# Legend:
# [1] = system: phenol-induced cervicitis model in rats; assay: Phenol-induced cervicitis model in rats; type: in vivo, SD rats
# Method: • Blank Control Group (untreated) (N=5+2 rats) • Cervicitis Model Group (vehicle treatment: 20% DMA+65% PEG400+15% H2O) (N=8+2 rats) • Cervicitis Model+Positive Control Drug Group (Jieeryin lotion (1:5 dilution), 2 times/day, for 7 consecutive days) (N=8 rats) • Cervicitis Model+Low-Dose MDI-1228 Compound Lotion Group (dose: 3 mg/kg/time, 2 times/day, for 7 consecutive days) (N=8 rats) • Cervicitis Model+Medium-Dose MDI-1228 Compound Lotion Group (dose: 10 mg/kg/time, 2 times/day, for 7 consecutive days) (N=8 rats) • Cervicitis Model+High-Dose MDI-1228 Compound Lotion Group (dose: 30 mg/kg/time, 2 times/day, for 7 consecutive days) (N=8 animals) • Experimental Environment: Temperature 20° C.-26° C., humidity 40%-70%.
# SD rats were acclimated for one week. After anesthesia with isoflurane, the rats were fixed in a supine position on the operation table with their limbs secured. A 1 mL syringe with a blunt needle was inserted approximately 1 cm into the rat's vagina, and 0.1 mL of 25% phenol slurry was slowly injected. The vaginal opening was immediately plugged with a sterile cotton ball, and the rat was kept in a head-down and tail-high position for 20 minutes. The injection was performed every 2 days, for a total of 3 times. The vaginal opening of the rats was observed, and the model was considered successful if there was white secretion, vaginal congestion, and swelling.
# The successfully modelled rats were randomly divided into 6 groups. Animals in each group were treated according to their group assignment. The blank group (untreated) received no treatment. The positive control group was administrated with Jieeryin lotion (1:5 dilution) for vaginal irrigation twice a day, for 7 consecutive days. The low, medium, and high-dose MDI-1228 compound lotions were used for vaginal irrigation twice a day, for 7 consecutive days. The model group was given an equal amount of vehicle treatment, with the same way and duration as the test drug groups.
# Clinical Symptoms Observation: The general condition of the rats (activity, diet, mental state) was continuously observed, and the rats were weighted before and after administration. Daily observations and recordings were made of changes in the local area and secretions of the rat's vulva, whether the vaginal opening is dry, and whether there is congestion, swelling in the vulva and vaginal mucosa, and whether there is vaginal fluid blood. Scoring was conducted according to the following table.
# Organ Weight and Organ Index Calculation: After the last administration, the rats were sacrificed the next day, and the uterus was removed, with fat tissue and mesentery dissected away, and the weight of the cervix (from the vaginal opening to the bifurcation of the double uterus) and the liver and spleen were measured to calculate the organ index.
# Pathological Detection: ELISA detection for serum markers IL-4, IL-6, IL-1β, TNF-α; ELISA detection for plasma CP; biochemical detection for MDA and T-SOD in cervical tissue.
# HE Staining: Tissue samples from animal vaginal, cervical, and uterine were excised, fixed in 4% paraformaldehyde, dehydrated, embedded in paraffin, and sectioned and HE stained for observation of histopathological morphology changes. The reagents and instruments required for HE staining included: Hematoxylin staining solution (AR 11800-1, BOSTER); Eosin staining solution (ARl1800-2, BOSTER); Ultra-clean advanced mounting medium (YZB, BASO); Scott's blueing solution (G1865, Solarbio), etc. Medication refrigerator (BYC-310, Shandong Bokai Biotech); Microscope (CX41 OLYMPUS); Microtome (BQ-318D, Berne); Electric heating blast drying oven (DHG-9070A. Hengke Scientific Instrument Co., Ltd.). The taken tissue was rinsed with running water for several hours, dehydrated through a series of ethanol solutions (70%, 80%, 90%), and then treated with a mixture of pure alcohol and xylene at a ratio of 1:1 for 15 minutes, followed by xylene I for 15 minutes and xylene II for 15 minutes (until transparent). […]
# [2] = system: atopic dermatitis/eczema in mice; assay: Atopic dermatitis/eczema model in mice (dust mite extract + SEB); type: in vivo
# [3] = 30 mg/kg/time, 2 times/day, 7 days
# [4] = MDI-1228 at various doses (3, 10, 30 mg/kg)
compound,measurement,setting,value
"CCc1cc(O)c(F)cc1-c1ccc2c(-c3nc4c([nH]3)CN(C(=O)N3CC[C@H](O)C3)C4)n[nH]c2c1 [MDI-1228, (S)-(2-(6-(2-ethyl-5-fluoro-4-hydroxyphenyl)-1H-indazol-3-yl)-4,6-dihydropyrrolo[3,4-d]imidazol-5-(1H)-yl)(3-hydroxylpyrrolidin-1-yl)ketone]","Vaginal, cervical and uterine tissue HE staining","[1]; 3 mg/kg/time, 2 times/day, 7 days",still showed significant inflammatory cell infiltration in the entire tissue structure
same,"Vaginal, cervical and uterine tissue HE staining","[1]; 10 mg/kg/time, 2 times/day, 7 days",marked reduction in inflammatory cells
same,Comprehensive score of cervicitis,"[1]; 30 mg/kg/time vaginal irrigation, 2 times/day, 7 days, vs. model group",significantly reducing the comprehensive score of cervicitis
same,Cervical index,[1]; [3],significantly reduced
same,"Reduction of area under the continuous scoring curve, edema score",[1]; [3],19.61%
same,"Reduction of area under the continuous scoring curve, erythema score",[1]; [3],29.99%
same,"Reduction of area under the continuous scoring curve, secretion score",[1]; [3],21.05%
same,"Reduction of area under the continuous scoring curve, vulvar inflammation score",[1]; [3],23.42%
same,"Vaginal, cervical and uterine tissue HE staining",[1]; [3],showing the best effect
same,"Conditions of erythema, edema, and secretion",[1]; [4],"can improve the conditions of erythema, edema, and secretion"
same,Levels of inflammatory factors,[1]; [4],"decrease the levels of inflammatory factors IL-10, IL-4, IL-6, and TNF-α"
same,Skin HE staining and toluidine blue staining,[2]; 0.5% MDI-1228 gel,a decrease in mast cells and inflammatory cells compared to the model group
same,Skin HE staining and toluidine blue staining,[2]; 1% and 3% MDI-1228 gel,relatively significant therapeutic effects
same,Reduction in area under the curve (AUC) of the dermatitis scores vs. model group,[2]; 3% MDI-1228 gel,23.75%
same,Number of Scratch Incidents (±SE),"[2]; Day 1, 0.5% MDI-1228 gel",24.0 ± 3.60
same,Scratch Duration (±SE),"[2]; Day 1, 0.5% MDI-1228 gel",241.00 ± 48.16
same,"Skin Erythema, Hemorrhage, Eruption, and Desquamation (Lesion Scoring) (Mean ± SE)","[2]; Day 1, 0.5% MDI-1228 gel 0.7 g gel/kg twice a day",4.13 ± 0.55
same,Number of Scratch Incidents (±SE),"[2]; Day 1, 1% MDI-1228 gel",20.38 ± 2.08
same,Scratch Duration (±SE),"[2]; Day 1, 1% MDI-1228 gel",211.50 ± 22.88
same,"Skin Erythema, Hemorrhage, Eruption, and Desquamation (Lesion Scoring) (Mean ± SE)","[2]; Day 1, 1% MDI-1228 gel 1 g gel/kg twice a day",4.75 ± 0.75
same,Number of Scratch Incidents (±SE),"[2]; Day 1, 3% MDI-1228 gel",23.00 ± 2.46
same,Scratch Duration (±SE),"[2]; Day 1, 3% MDI-1228 gel",288.00 ± 19.68
same,"Skin Erythema, Hemorrhage, Eruption, and Desquamation (Lesion Scoring) (Mean ± SE)","[2]; Day 1, 3% MDI-1228 gel 1 g gel/kg twice a day",3.38 ± 0.42
same,"Skin Erythema, Hemorrhage, Eruption, and Desquamation (Lesion Scoring) (Mean ± SE)","[2]; Day 4, 0.5% MDI-1228 gel 0.7 g gel/kg twice a day",2.88 ± 0.64
same,"Skin Erythema, Hemorrhage, Eruption, and Desquamation (Lesion Scoring) (Mean ± SE)","[2]; Day 4, 1% MDI-1228 gel 1 g gel/kg twice a day",3.25 ± 0.49
same,"Skin Erythema, Hemorrhage, Eruption, and Desquamation (Lesion Scoring) (Mean ± SE)","[2]; Day 4, 3% MDI-1228 gel 1 g gel/kg twice a day",2.63 ± 0.46
same,"Skin Erythema, Hemorrhage, Eruption, and Desquamation (Lesion Scoring) (Mean ± SE)","[2]; Day 7, 0.5% MDI-1228 gel 0.7 g gel/kg twice a day",2.13 ± 0.58
same,"Skin Erythema, Hemorrhage, Eruption, and Desquamation (Lesion Scoring) (Mean ± SE)","[2]; Day 7, 1% MDI-1228 gel 1 g gel/kg twice a day",2.13 ± 0.30
same,"Skin Erythema, Hemorrhage, Eruption, and Desquamation (Lesion Scoring) (Mean ± SE)","[2]; Day 7, 3% MDI-1228 gel 1 g gel/kg twice a day",1.75 ± 0.31
same,Number of Scratch Incidents (±SE),"[2]; Day 14, 0.5% MDI-1228 gel",30.38 ± 3.79
same,Scratch Duration (±SE),"[2]; Day 14, 0.5% MDI-1228 gel",165.63 ± 27.56
same,"Skin Erythema, Hemorrhage, Eruption, and Desquamation (Lesion Scoring) (Mean ± SE)","[2]; Day 14, 0.5% MDI-1228 gel 0.7 g gel/kg twice a day",1.25 ± 0.36
same,Number of Scratch Incidents (±SE),"[2]; Day 14, 1% MDI-1228 gel",28.13 ± 2.05
same,Scratch Duration (±SE),"[2]; Day 14, 1% MDI-1228 gel",182.0 ± 25.39
same,"Skin Erythema, Hemorrhage, Eruption, and Desquamation (Lesion Scoring) (Mean ± SE)","[2]; Day 14, 1% MDI-1228 gel 1 g gel/kg twice a day",1.38 ± 0.18
same,Number of Scratch Incidents (±SE),"[2]; Day 14, 3% MDI-1228 gel",23.75 ± 2.62
same,Scratch Duration (±SE),"[2]; Day 14, 3% MDI-1228 gel",173.13 ± 19.26
same,"Skin Erythema, Hemorrhage, Eruption, and Desquamation (Lesion Scoring) (Mean ± SE)","[2]; Day 14, 3% MDI-1228 gel 1 g gel/kg twice a day",1.63 ± 0.26
same,Effect on inflammation in atopic dermatitis/eczema (conclusion),[2]; MDI-1228 gel preparation,significant inhibitory effects on inflammation
same,IFN-γ level in serum,"[2]; MDI-1228 gel, vs. model group",significantly increased
same,IL-4 level in serum,"[2]; MDI-1228 gel, vs. model group",significantly reduced
same,IL-13 level in serum,"[2]; MDI-1228 gel, vs. model group",significantly reduced
same,Behavioral analysis (scratch incidents and scratch duration),"[2]; MDI-1228 high-dose (3% gel), tofacitinib 10 mg/kg",certain therapeutic effect in the behavioral analysis
same,"Clinical lesion scoring, therapeutic effect","[2]; gels with 0.5%, 1%, 3% MDI-1228, positive control Tofacitinib 10 mg/kg, 14 days",therapeutic effects similar to the positive control drug
same,TNF-α level in serum,"[2]; high, medium, and low dose MDI-1228 gel, vs. model group",a reduction in TNF-α levels
